Data on 2 compounds can be found in US20240368151A1, “NOVEL ERGOLINES AND METHODS OF TREATING MOOD DISORDERS” (priority 2021, published 2024).

The target of data set [1] is T1, 5-HT2A receptor (Homo sapiens (Human), UniProt P28223). Type of data set: cell-based. The settings on record: beta-arrestin recruitment. Here is the method: The degree of arrestin bias varied substantially across the other compounds tested as well.
Arrestin Functional Assay at 5-HT2A. Recruitment of beta-arrestin was determined using a PathHunter assay at Eurofins DiscoverX (Fremont, CA) according to their standard protocols. PathHunter GPCR beta-arrestin assays take advantage of DiscoverX's proprietary Enzyme Fragment Complementation technology. The GPCR is fused in frame with a small enzyme donor fragment ProLink™ (PK) and co-expressed in cells stably expressing a fusion protein of beta-arrestin and the larger, N-terminal deletion mutant of beta-galactosidase. Activation of the GPCR (5-HT2A receptor in this case) stimulates binding of beta-arrestin to the PK-tagged GPCR and forces complementation of the two enzyme fragments, resulting in the formation of an active beta-galactosidase enzyme. This interaction leads to an increase in enzyme activity that can be measured using chemiluminescent PathHunter Detection Reagents. Briefly, PathHunter cells expressing 5-HT2A receptors were seeded in a volume of 20 μL into 384-well plates and incubated at 37° C. for the appropriate time prior to testing. […] Plates were then imaged on a microplate reader and the agonist activity was calculated using the following formula: % Activity=100%×(mean RLU of test sample−mean RLU of vehicle control)/(mean MAX control ligand−mean RLU of vehicle control), where RLU=relative light units.

A further data set deals with D1 receptor (Homo sapiens (Human), UniProt P21728). Briefly: FLIPR Ca^2+ flux agonist assay at D1. The class given is cell-based. The procedure: (§1) Functional Assays at Adrenergic and Dopamine Receptors. Agonist activity at Alpha1A, Alpha2A, D1, and D2 receptors was determined using a FLIPR Ca^2+ flux assay at WuXi AppTec (Hong Kong) Limited according to their standard protocols. Briefly, stably transfected cells expressing the receptor of interest were grown and plated in a 384 well plate and incubated at 37° C. and 5% CO2 overnight. A solution of 250 mM probenecid in 1 mL FLIPR assay buffer was prepared fresh. This was combined with a fluorescent dye (Fluo-4 Direct™) to make a final assay concentration of 2.5 mM. […] The fluorescent dye was then added to the assay plate along with assay buffer to a final volume of 40 μL. The cell plate was incubated for 50 min at 37° C. and 5% CO2 and placed into the FLIPR Tetra along with the compound plate. 10 μL of references and compounds were then transferred from the compound plate into the cell plate and the fluorescent signal was read.
Chain of D1 receptor (P21728 whole entry, looked up): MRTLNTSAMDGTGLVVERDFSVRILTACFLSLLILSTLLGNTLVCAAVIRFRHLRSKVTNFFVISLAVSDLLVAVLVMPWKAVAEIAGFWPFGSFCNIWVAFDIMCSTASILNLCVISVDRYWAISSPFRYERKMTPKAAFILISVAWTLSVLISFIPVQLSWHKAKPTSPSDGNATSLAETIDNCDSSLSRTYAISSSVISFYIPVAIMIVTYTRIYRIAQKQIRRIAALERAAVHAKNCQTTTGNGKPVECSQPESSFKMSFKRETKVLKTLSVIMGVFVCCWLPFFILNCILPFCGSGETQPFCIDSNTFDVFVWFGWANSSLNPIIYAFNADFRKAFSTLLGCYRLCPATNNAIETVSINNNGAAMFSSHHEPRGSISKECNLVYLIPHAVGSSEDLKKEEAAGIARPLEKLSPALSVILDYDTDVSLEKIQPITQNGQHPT

Another data set deals with 5-HT1A receptor (Homo sapiens (Human), UniProt P08908). Put plainly: FLIPR Ca^2+ flux agonist assay at 5-HT1A. The class given is cell-based. The settings on record: CHO cells.
The target in a further data set is 5-HT2B receptor (Homo sapiens (Human), UniProt P41595). Put plainly: FLIPR Ca^2+ flux agonist assay at 5-HT2B. The class given is cell-based. Particulars: HEK293. Summed up:
(§2)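 Agonist-induced calcium flux was measured on FLIPR Tetra in stable HEK293 cells for 5-HT2A and 5-HT2B, and in stable CHO cells for 5-HT1A. Cells were loaded with Fluo-4 Direct dye and 2.5 mM probenecid for 50 min at 37 °C before compound addition and fluorescence reading.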

Data set [2] is described as follows: Metabolic stability in human liver microsomes (HLM). Type of data set: in vitro ADME. The settings on record: both sexes, human, pooled human liver microsomes, pH 7.4, NADPH. The text has this:
HLM Stability. Pooled HLM from adult male and female donors (Corning 452117) were used.
(In general: Microsomes from liver hold many membrane-bound enzymes, among them those of drug oxidation.)

For the next data set, the target named is D2 receptor (Homo sapiens (Human), UniProt P14416). Put plainly: FLIPR Ca^2+ flux agonist assay at D2. Type of data set: cell-based. The procedure:
as §1

A further data set concerns the target 5-HT1B receptor (Homo sapiens (Human), UniProt P28222). Put plainly: cAMP accumulation agonist assay at 5-HT1B. The class given is cell-based. Here is the method:
Functional Assay at 5-HT1B. Agonist activity at 5-HT1B was determined using a cAMP accumulation protocol at WuXi AppTec (Hong Kong) Limited according to their standard protocols. Briefly, stably transfected cells were plated in an OptiPlate-384 well plate, incubated at RT for 60 mins, and cAMP standard solution (800 nM, 10 μL) was added to the blank well. Then, 10 μL detection reagent was added to each well, the plate incubated for 60 mins at RT, and the plate read using EnVision.
Background: cAMP levels reflect the balance of adenylyl cyclase and phosphodiesterase activity.

Data set [3] concerns the target T1, 5-HT2A receptor. Type of data set: cell-based. The settings on record: Ca^2+ flux, HEK293. A digest of the protocol:
as §2

Data set [4] is described as follows: Metabolic stability in mouse liver microsomes (MLM). Particulars: mouse, pooled mouse liver microsomes, pH 7.4, MLM (CD-1), NADPH. Type of data set: in vitro ADME. The text has this: MLM Stability Pooled MLM from CD-1 mice (BIOIVT M00501) were used.
The next data set addresses Alpha1A receptor (Homo sapiens (Human), UniProt P35348). Briefly: FLIPR Ca^2+ flux agonist assay at Alpha1A. Type of data set: cell-based. The procedure:
Disclosed compounds were tested for agonist activity at several adrenergic (Alpha1A and Alpha2A) and dopamine (D1 and D2) receptor subtypes using Ca^2+ flux functional assays, with the results summarized in Table 6. Selectivity for the 5-HT2A receptor over these other targets varied depending on the specific target and compound.
Functional Assays at Adrenergic and Dopamine Receptors. Agonist activity at Alpha1A, Alpha2A, D1, and D2 receptors was determined using a FLIPR Ca^2+ flux assay at WuXi AppTec (Hong Kong) Limited according to their standard protocols. Briefly, stably transfected cells expressing the receptor of interest were grown and plated in a 384 well plate and incubated at 37° C. and 5% CO2 overnight. A solution of 250 mM probenecid in 1 mL FLIPR assay buffer was prepared fresh. This was combined with a fluorescent dye (Fluo-4 Direct™) to make a final assay concentration of 2.5 mM. Compounds were diluted 1:3.16 for 10 points and 750 nL was added to a 384 well compound plate using ECHO along with 30 μL assay buffer. The fluorescent dye was then added to the assay plate along with assay buffer to a final volume of 40 μL. The cell plate was incubated for 50 min at 37° C. and 5% CO2 and placed into the FLIPR Tetra along with the compound plate. 10 μL of references and compounds were then transferred from the compound plate into the cell plate and the fluorescent signal was read.

Data set [5] is described as follows: Metabolic stability in rat liver microsomes (RLM). The class given is in vitro ADME. Particulars: both sexes, rat, pooled rat liver microsomes, pH 7.4, NADPH.

Chain of Alpha1A receptor (P35348 whole entry, looked up): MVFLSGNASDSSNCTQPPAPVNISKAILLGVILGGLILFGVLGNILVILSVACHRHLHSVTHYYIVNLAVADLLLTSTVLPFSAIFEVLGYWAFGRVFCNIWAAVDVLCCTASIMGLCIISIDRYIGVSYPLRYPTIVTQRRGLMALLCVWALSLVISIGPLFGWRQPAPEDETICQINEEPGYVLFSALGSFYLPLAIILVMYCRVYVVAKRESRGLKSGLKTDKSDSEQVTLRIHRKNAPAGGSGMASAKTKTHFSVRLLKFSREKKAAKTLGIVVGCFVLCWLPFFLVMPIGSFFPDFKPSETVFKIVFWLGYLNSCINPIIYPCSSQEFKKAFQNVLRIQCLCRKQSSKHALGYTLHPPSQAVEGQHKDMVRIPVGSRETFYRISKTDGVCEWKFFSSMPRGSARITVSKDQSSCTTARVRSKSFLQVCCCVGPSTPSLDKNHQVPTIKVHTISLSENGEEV
Chain of 5-HT1B receptor (P28222 whole entry, looked up): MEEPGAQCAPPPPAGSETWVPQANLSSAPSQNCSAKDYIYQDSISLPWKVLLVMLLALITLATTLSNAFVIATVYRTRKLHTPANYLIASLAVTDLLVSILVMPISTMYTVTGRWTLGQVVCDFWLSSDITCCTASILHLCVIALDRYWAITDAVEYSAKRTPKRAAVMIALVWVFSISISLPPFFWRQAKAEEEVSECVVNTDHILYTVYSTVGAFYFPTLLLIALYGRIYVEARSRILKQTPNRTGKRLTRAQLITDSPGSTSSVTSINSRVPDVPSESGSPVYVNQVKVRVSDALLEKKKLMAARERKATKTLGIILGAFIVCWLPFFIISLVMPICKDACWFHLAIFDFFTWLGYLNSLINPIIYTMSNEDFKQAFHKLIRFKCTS
Chain of 5-HT2B receptor (P41595 whole entry, looked up): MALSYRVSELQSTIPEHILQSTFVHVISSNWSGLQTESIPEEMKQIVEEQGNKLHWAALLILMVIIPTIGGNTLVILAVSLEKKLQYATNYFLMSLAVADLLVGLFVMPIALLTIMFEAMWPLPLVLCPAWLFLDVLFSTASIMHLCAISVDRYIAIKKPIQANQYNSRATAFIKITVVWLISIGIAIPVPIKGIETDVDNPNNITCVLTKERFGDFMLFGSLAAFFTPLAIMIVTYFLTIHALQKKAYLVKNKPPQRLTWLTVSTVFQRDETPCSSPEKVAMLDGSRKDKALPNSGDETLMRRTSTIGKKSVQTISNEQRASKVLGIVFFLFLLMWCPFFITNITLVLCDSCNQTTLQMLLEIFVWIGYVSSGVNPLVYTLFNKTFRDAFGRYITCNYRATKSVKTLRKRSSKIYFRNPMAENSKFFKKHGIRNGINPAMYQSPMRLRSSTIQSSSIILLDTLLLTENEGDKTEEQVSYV
Chain of D2 receptor (P14416 whole entry, looked up): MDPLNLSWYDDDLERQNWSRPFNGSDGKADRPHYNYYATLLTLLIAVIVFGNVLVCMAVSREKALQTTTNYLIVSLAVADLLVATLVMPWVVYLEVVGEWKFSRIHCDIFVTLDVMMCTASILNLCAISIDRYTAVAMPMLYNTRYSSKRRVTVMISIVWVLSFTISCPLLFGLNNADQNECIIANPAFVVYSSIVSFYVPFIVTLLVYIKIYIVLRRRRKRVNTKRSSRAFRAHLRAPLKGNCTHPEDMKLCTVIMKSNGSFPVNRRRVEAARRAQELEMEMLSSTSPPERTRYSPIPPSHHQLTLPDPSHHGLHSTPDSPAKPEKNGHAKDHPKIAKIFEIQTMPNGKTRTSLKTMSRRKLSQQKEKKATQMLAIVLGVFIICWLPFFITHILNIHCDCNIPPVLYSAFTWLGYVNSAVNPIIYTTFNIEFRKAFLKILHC

For `CCN(CC)C(=O)[C@@H]1C=C2c3cccc4[nH]cc(c34)C[C@H]2N(C)C1` [LSD, lysergic acid diethylamide, reference compound], the “5-HT2A Arrestin % Act @ Max Dose” value at 5-HT2A receptor [1] was found to be 52.646%. For the same compound, on 5-HT2A receptor [1], the “agonist type in the 5-HT2A arrestin recruitment assay, in words” value is given as “partial agonists”. Moreover, on D1 receptor, the “D1 % Act @ Max Dose” value came to 94.9%. In addition, the “5-HT1A % Act @ Max Dose” value on 5-HT1A receptor is given as 91.39%. The “5-HT2B % Act @ Max Dose” value at 5-HT2B receptor is 19.26%. Further, the half-life at 1 μM is 71.6 min in [2], 31.3 min in data set [4] and 60.2 min in data set [5]. Besides, on D2 receptor, the “D2 % Act @ Max Dose” value was determined as 78.33%. Moreover, the “5-HT1B % Act @ Max Dose” value at 5-HT1B receptor turned out to be 98.03%. For the same compound, the “5-HT2A % Act @ Max Dose” value on 5-HT2A receptor [3] was determined as 107.7%. The “Alpha 1A % Act @ Max Dose” value at Alpha1A receptor worked out at 60.3%.

For `CCN(CC)C(=O)[C@@H]1C=C2c3cccc4[nH]cc(c34)C[C@H]2N(CCC(F)(F)F)C1` [Compound 12, (6aR,9R)-N,N-diethyl-7-(3,3,3-trifluoropropyl)-4,6,6a,7,8,9-hexahydroindolo[4,3-fg]quinoline-9-carboxamide], the “5-HT1A % Act @ Max Dose” value on 5-HT1A receptor came to 71.42%. Besides, the “5-HT2B % Act @ Max Dose” value at 5-HT2B receptor turned out to be 29.55%. The half-life at 1 μM in [2] is 13.5 min; in data set [4], 2.1 min; in data set [5], 5.9 min. Also, the “5-HT1B % Act @ Max Dose” value on 5-HT1B receptor was 95.51%. Further, at 5-HT2A receptor [3], the “5-HT2A % Act @ Max Dose” value was 78.69%. Besides, the “Alpha 1A % Act @ Max Dose” value at Alpha1A receptor is recorded as 2.08%.

In general, half-life refers to the time needed for the level to fall by half in the phase considered. A high value points to slow decline.
